{"source": "patent US8039585B2", "about": "“Therapeutic administration of the scrambled anti-angiogenic peptide C16Y” (The United States of America as represented by the …, priority 2004, dated 2011)", "key": {"[1]": {"system": "HUVECs", "test": "Endothelial cell tube-forming assay on Matrigel", "format": "cell-based, human", "set-up": "key to Disruption of tube formation / Activity (tube formation, truncated C16Y peptides): +: tubes slightly affected; ++: tubes moderately affected; +++: tubes disrupted; ++++: tubes completely disrupted; −: tubes resemble control", "conditions": "for Disruption of tube formation: 16 hours", "method": "FIG. 3: Disruption of endothelial cell tube formation by C16Y peptide. 48-well plates were coated with 200 μl of Matrigel per well. Each well was treated with RPMI containing 24,000 human umbilical vein endothelial cells (HUVECS) and 100 mg/L endothelial cell growth factor in the presence of 10-75 μg/ml of C16 or scrambled C16 peptide for 16 hours. Control wells contained medium only. Cells were fixed and stained, and tube formation was scored by a blinded observer.\nTube-forming assays were performed as described previously (Ponce 2001). 48-well plates were coated with 200 μl/well of Matrigel (Gho 2001; Kubota 1988), a basement membrane matrix. HUVECs (24,000 cells/well) were plated in RPMI 1640 containing 10% bovine calf serum, defined and supplemented (HyClone Laboratories, Inc., Logan, Utah), along with 100 mg/liter of endothelial cell growth factor (Collaborative Biomedical). C16 or scrambled C16 peptides were added at concentrations ranging from 10-75 μg/ml. Control wells contained medium only. After 16 hours, cells were fixed and stained with Diff-Quick fixative (methanol) and solution II (6.25% (w/v) each of azure A and methylene blue) (Dade A G, Dudingen, Switzerland), and tube formation was scored by a blinded observer. Each peptide was tested at least in triplicate, and the assays were repeated a minimum of three times.\nTube formation assays were repeated using truncated versions of the C16Y peptide to determine the minimal active sequence of the peptide. The carboxyl end of C16Y was not necessary for activity, whereas the amino terminal aspartic acid was required. The minimal active sequence for the C16Y peptide is shown in SEQ ID NO: 2. Each of the peptides containing at least this 8 amino acid sequence (SEQ ID NOs: 1-5) inhibited tube formation."}, "[2]": {"system": "C16-induced angiogenesis in the chick CAM", "test": "CAM assay, C16-induced angiogenesis", "format": "in vivo", "conditions": "peptide alone (C16: 0.5 μg)", "method": "FIG. 4: Inhibition of C16-induced angiogenesis by C16Y. 0.5 μg of angiogenic stimulator (C16 peptide) and varying concentrations of either C16S or C16Y peptides were applied to 10-day-old embryonated eggs in 5 μl of water. After 3 days, microphotographs were taken of the eggs to determine angiogenesis levels. Negative control eggs were treated with water only (panel a), while positive control eggs were treated with bFGF only (not shown). As expected, C16 peptide administered alone stimulated angiogenesis (panel d). […] When the amount of inhibitor peptide was lowered to 0.05 μg, C16Y peptide continued to inhibit angiogenesis (panel f), while C16S peptide had no effect (panel c).\nThe CAM assay was performed using 10-day-old embryonated eggs (CBT, Charlestown, Md.) as described previously (Gho 1999). On embryonal day 3, approximately 4 ml of ovalbumin was removed from each egg. After opening windows on embryonal day 10, the angiogenic stimulus (C16) and test competitor peptides in 5 μl of distilled water were applied to the CAM after drying on 13-mm diameter quartered plastic coverslips (Thermanox; Nalge, NUNC International, Naperville, Ill.). Three days later, the eggs were scored for a positive response and photographed. The positive control was bFGF, and the negative control was the vehicle water. Experiments were repeated twice using a minimum of 11 eggs for each data point."}, "[3]": {"system": "MDA-MB 231 breast tumor cells", "format": "in vivo, chick", "conditions": "for Average tumor weight: 7 day incubation", "method": "FIG. 6: Inhibition of CAM tumor growth by C16Y. MDA-MB 231 breast tumor cells were mixed with C16 or C16Y peptides (at either 50 or 100 μg/ml), then mixed with 1:1 with neutralized collagen I solution. The collagen I gel was overlayed with the CAM of a 7-day-old embryo for 7 days, after which the membrane was fixed and tumor cells were removed and weighed. In the absence of either peptide, average tumor weight was 5.40±0.59 mg. […] C16Y peptide inhibited tumor growth by approximately 40% at both concentrations tested. Bars represent ±SD.\nThe effect of C16Y on tumor growth in vivo was analyzed using the CAM assay (Gho 2001). MDA-MB 231 breast tumor cells (a gift of Dan Welch, Pennsylvania State University, University Park, Pa.) (1×10^6 cells/0.1 ml) in RPMI 1640 were mixed with 0, 50, or 100 μg/ml of C16 or C16Y, and then mixed 1:1 with a neutralized collagen I solution (4.6 mg/ml collagen type 1). This collagen I gel was overlayed with the CAM of a 7-day-old embryo. After a 7 day incubation, the membrane was fixed and tumor cells were removed and weighed. This experiment was repeated twice, with each data point tested in at least six replicates."}, "[4]": {"system": "MDA-MB 231 cells", "test": "Tumor cell proliferation assay (Cell Titer 96 Aqueous)", "format": "cell-based", "conditions": "100 μg/ml, 2-72 hours", "method": "A proliferation assay was performed to determine whether the tumor inhibition discussed in Example 6 was the result of angiogenesis inhibition or some effect on cell proliferation. Proliferation of MDA-MB 231 cells was quantified using a Cell Titer 96 Aqueous Cell Proliferation assay kit (Promega, Madison, Wis.). Cells were plated on four 96-well dishes at 5×10^3 cells/well and cultured in AIM-V serum-free medium (Life Technologies, Inc., Gaithersburg, Md.). After 1 hour, peptides C16 and C16Y were added at a final concentration of 100 μg/ml. A separate dish was used to quantitate proliferation at 2, 24, 48, and 72 hours by reading absorbance at 490 nm on an Emax plate reader. Each experiment was repeated in triplicate two times."}, "[5]": {"system": "MDA-MB 231 breast cancer cells", "test": "Primary tumor growth in nude mice (s.c. MDA-MB 231)", "format": "in vivo", "conditions": "1 mg/day i.p.", "method": "FIG. 7: Inhibition of primary tumor growth by C16Y. MDA-MB 231 cancer cells were injected subcutaneously (s.c.) into nude mice and the tumors were allowed to grow until they reached 200-300 mm^3. Mice were then treated daily for 7-10 days with C16 (1 mg/day) or C16Y peptides (0.2, 0.5, or 1 mg/day) by intraperitoneal (i.p.) injection. Control mice were injected with water only. Tumor size was measured at 0, 3, 6, and 9 days after peptide injections began. A. Mice were treated with 1 mg/day of either C16 or C16Y peptide for 10 days. […] B. Mice were treated with C16Y peptide at varying concentrations for 7 days. C16Y decreased tumor size at all concentrations tested during the 7 days it was administered. Tumor growth resumed when administration of the C16Y peptide was halted, with tumor size increasing more rapidly in mice treated with lower dosages of C16Y. Bars represent ±SD.\nMDA-MB 231 breast cancer cells (5×10^5 cells) mixed with Matrigel (1:4) were injected subcutaneously (s.c.) into nude mice. […] Tumor growth was monitored with a caliper, with measurements being taken on days 0, 3, 6, and 9 after the first peptide injection. Tumor volume was determined using the formula width^2×length×0.52. […] Vessel number was determined by staining sections with a CD-31 antibody (Nomizu 2001) and counting 6 fields per section per mouse (n=2 section/mouse; total 3 mice)."}}, "note": "Read-outs that look alike come from different tables or passages of the source."}
{"sequence": "KAFDITYVRLKF [Peptide C16, angiogenic peptide from the γ1 chain of laminin-1]", "values": [{"measurement": "Dose at which tube formation is disrupted (lowest active)", "setting": "[1]; 10-75 μg/ml tested", "result": 50, "unit": "µg/mL"}, {"measurement": "Disruption of tube formation", "setting": "[1]; peptide concentration 10 μg/ml", "result": "−"}, {"measurement": "Disruption of tube formation", "setting": "[1]; peptide concentration 25 μg/ml", "result": "−"}, {"measurement": "Disruption of tube formation", "setting": "[1]; peptide concentration 50 μg/ml", "result": "+"}, {"measurement": "Disruption of tube formation", "setting": "[1]; peptide concentration 75 μg/ml", "result": "+++"}, {"measurement": "Angiogenesis with peptide administered alone", "setting": "[2]", "result": "capable of inducing angiogenesis"}, {"measurement": "Average tumor weight", "setting": "[3]; 50 μg/ml peptide", "result": "5.45 ± 0.84", "unit": "mg"}, {"measurement": "Average tumor weight", "setting": "[3]; 100 μg/ml peptide", "result": "5.85 ± 0.54", "unit": "mg"}, {"measurement": "Vessels observed in tumors", "setting": "[3]; P≦0.027", "result": "9.6±0.23"}, {"measurement": "Effect on MDA-MB 231 cell proliferation", "setting": "[4]", "result": "Neither C16 nor C16Y altered MDA-MB 231 cell proliferation"}, {"measurement": "Tumor size relative to original size", "setting": "[5]; 7 days, stated jointly with control mice", "result": "1.7-2.5 times their original size"}, {"measurement": "Tumor growth", "setting": "[5]; after 7 days", "result": "did not significantly affect tumor growth"}]}
